In one series the test system is RBL-2H3. The series is described as follows: Antihistaminic activity in rat RBL2H3 cells assessed as inhibition of DNP-BSA-induced beta-hexosaminidase release preincubated for 10 mins before DNP-BSA challenge. Type of series: functional, cell-based.
Series [1] can be described thus: Cytotoxicity against rat RBL2H3 cells at 500 uM by optical microscope. The class given is cell-based. The following applies: rbl-2h3, 500 µM.

On to `COc1ccc(-c2cc(=O)c3c(OC)c(OC)c(OC)c(OC)c3o2)cc1` [TANGERETIN], for which the half-maximal inhibitory concentration (IC50) in the series with RBL-2H3 is greater than 500 µM. The Activity entry in series [1] is given as “Non-toxic”.

Turning to `O=c1cc(-c2ccc(O)cc2)oc2cc(O)cc(O)c12` [APIGENIN], in the series on RBL-2H3, the IC50 came to 124 µM. The Activity entry in series [1] is on record as “Non-toxic”.

As for `COc1cc(-c2oc3cc(O)cc(O)c3c(=O)c2C(C)=O)cc(OC)c1O`, in the series on RBL-2H3, the IC50 came to 212 µM. Also, the Activity result in series [1] is on record as “Non-toxic”.

For the molecule `O=c1cc(-c2ccc(O)cc2)oc2cc(O)c(O)c(O)c12` [SCUTELLAREIN], the IC50 in the series with RBL-2H3 was 67.2 µM. Also, in series [1], the Activity entry is listed as “Non-toxic”.

Take `COc1cc2oc(-c3ccc(O)cc3)cc(=O)c2c(O)c1OC` [CIRSIMARITIN]: the half-maximal inhibitory concentration (IC50) in the series on RBL-2H3 worked out at 161 µM. Further, the Activity entry in series [1] was “Non-toxic”.

Take `COc1ccc(-c2cc(=O)c3c(O)cc(O)cc3o2)cc1OC`: the IC50 in the series on RBL-2H3 was greater than 500 µM. Moreover, the Activity result in series [1] is recorded as “Non-toxic”.

For `COc1ccc(-c2cc(=O)c3ccccc3o2)cc1OC` [3',4'-DIMETHOXYFLAVONE], in the series with RBL-2H3, the IC50 is greater than 500 µM. For the same molecule, the Activity entry in series [1] is “Non-toxic”.

Take `COc1cc(-c2cc(=O)c3c(O)cc(O)cc3o2)cc(OC)c1OC`: in the series on RBL-2H3, the IC50 amounted to 424 µM. Further, in series [1], the Activity result was “Non-toxic”.

Regarding `O=C(O)c1cc(=O)c2c(OCC(O)COc3cccc4oc(C(=O)O)cc(=O)c34)cccc2o1` [CROMOLYN SODIUM], the IC50 in the series on RBL-2H3 turned out to be 1540 µM.

Take `COc1cc(-c2cc(=O)c3ccccc3o2)cc(OC)c1O`: the IC50 in the series on RBL-2H3 turned out to be 97.5 µM. The Activity entry in series [1] was “Non-toxic”.

In the case of `COc1c(OC)c(OC)c2c(=O)cc(-c3ccc(O)c(O)c3)oc2c1OC`, the 50% inhibitory concentration (IC50) in the series on RBL-2H3 was determined as 203 µM. In series [1], the Activity entry is “Non-toxic”.

Take `COc1cc(OC)cc(-c2cc(=O)c3c(O)cc(O)cc3o2)c1`: in the series on RBL-2H3, the IC50 was greater than 500 µM. Besides, the Activity result in series [1] is given as “Non-toxic”.

With `O=c1cc(-c2cc([N+](=O)[O-])cc([N+](=O)[O-])c2)oc2cc(O)cc(O)c12`, the concentration for half-maximal inhibition (IC50) in the series with RBL-2H3 is greater than 500 µM. In addition, in series [1], the Activity result is recorded as “Non-toxic”.

Turning to `COc1cc(OC)cc(-c2cc(=O)c3ccccc3o2)c1` [3',5'-DIMETHOXYFLAVONE], the IC50 in the series on RBL-2H3 was greater than 500 µM. In series [1], the Activity result is listed as “Non-toxic”.

Turning to `O=c1cc(-c2ccc(O)c(O)c2)oc2cc(O)cc(O)c12` [LUTEOLIN], in the series on RBL-2H3, the IC50 came out at 58.2 µM. Moreover, in series [1], the Activity entry is on record as “Non-toxic”.

In the case of `O=c1cc(-c2ccccc2)oc2cc(O)cc(O)c12` [CHRYSIN], in the series on RBL-2H3, the IC50 was greater than 500 µM. Further, in series [1], the Activity result is reported as “Non-toxic”.

Turning to `COc1cc(-c2cc(=O)c3c(O)cc(O)cc3o2)cc(OC)c1O` [TRICIN], the IC50 in the series with RBL-2H3 was 4.83 µM. In addition, in series [1], the Activity entry is “Non-toxic”.

As for `O=c1cc(-c2ccccc2)oc2cc(O)c(O)c(O)c12` [BAICALEIN], the IC50 with RBL-2H3 turned out to be 179 µM. In addition, the Activity entry in series [1] is on record as “Non-toxic”.

Regarding `COc1c(OC)c(O)c2c(=O)cc(-c3ccc(O)c(O)c3)oc2c1OC` [SIDERITIFLAVONE], the IC50 in the series on RBL-2H3 was greater than 500 µM. Further, in series [1], the Activity result is recorded as “Non-toxic”.

The term IC50 denotes the concentration that gives 50% inhibition.

(Values after ChEMBL document CHEMBL1147225, “Tricin from a malagasy connaraceous plant with potent antihistaminic activity” (J Nat Prod, 2003).)
